# Tests used:
# [1] = tested on: human washed platelets; assay: Platelet ATP release assay (luciferin/luciferase); type: cell-based; conditions: for IC50: Homo sapiens, Platelet
# Method: (§1) Blood was collected from a median cubital vein using a 3.8% sodium citrate anticoagulation tube with a 1:9 dilution ratio. The platelets were washed using a previously described method with slight modification ([Babur et al., 2020]; [Uphaus et al., 2022]). The blood was centrifuged at room temperature at 300 × g for 10 min to separate platelet-rich plasma (PRP). PRP was added to 50 ng/mL of PGE1 and 5 mM EDTA, centrifuged at 2,000 × g for 2 min at room temperature, and the platelet precipitate was obtained after discarding the supernatant. The modified HEPES-Tyrode’s buffer (20 mM 4-(2-Hydroxyethyl)-1-piperazine ethane sulfonic acid [HEPES], pH 7.3, 129 mM NaCl, 2.9 mM KCl, 12 mM NaHCO3, 0.34 mM Na2HPO4, 20 mM HEPES, 5 mM D-Glucose, 1 mM MgCl2) was used to resuspend the platelets, added with 50 ng/mL PGE1 and 5 mM EDTA, and the platelets were washed by centrifugation at 2,000 ×g for 2 min at room temperature. The washed platelets (WP) were resuspended using modified HEPES-Tyrode’s buffer, and the platelet count was adjusted to 150–200 × 10^9/L.
# (§2) Platelet aggregation and ATP release were detected using the Chrono-Log platelet aggregation instrument (Chrono-Log Corp., Havertown, Pennsylvania, United States), as previously reported ([Babur et al., 2020]). […] In addition, 1 mM CaCl2 and different platelet activators (ADP, collagen, and thrombin; Chrono-Log Corp., Havertown, Pennsylvania, United States; U46619, from Sigma, St. Louis, MO, United States; convulxin, sc-202554 from Santa Cruz Biotechnology, Santa Cruz, CA, United States) were added to each group before the start of the aggregation assay. For the ATP release experiments, the platelets were incubated with 50 ng/mL luciferin and D-luciferase (Cat No. 395; Chrono-Log Corp.) for 2 min before the addition of activators. The platelet aggregation and ATP release curves were traced during experiments.
# [2] = parameters: method as in Cheurfa et al., 2019; conditions: diet-induced obese mice; 200 mg/kg/d; ref Cheurfa et al., 2019; cited from earlier work
# [3] = molecular target: T1, rhGPVI (Homo sapiens, UniProt Q9HCN6); assay: Solid phase binding assay (rhGPVI binding to immobilized collagen); conditions: rhGPVI 30 nM; collagen 5 μg/mL coated; read-out: IC50, inhibition of binding of rhGPVI to collagen
# T1 construct: rhGPVI was expressed and purified according to the method reported in the literature; made in house
# T1 sequence (Q9HCN6 21-203 limits assumed): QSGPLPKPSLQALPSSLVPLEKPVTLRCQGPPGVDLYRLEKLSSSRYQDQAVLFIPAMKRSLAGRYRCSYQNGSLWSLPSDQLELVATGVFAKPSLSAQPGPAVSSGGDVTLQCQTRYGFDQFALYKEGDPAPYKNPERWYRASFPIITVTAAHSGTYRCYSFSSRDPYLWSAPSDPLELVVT
# Method: rhGPVI was expressed and purified according to the method reported in the literature ([Horii et al., 2006]). rhGPVI was cross-linked with 10 μg/mL of cross-linking antibody His Tag Horseradish Peroxidase-conjugated Antibody (Cat. MAB050H; R&D Systems, Minneapolis, MN, United States). Solid phase assays were performed based on previously described procedures ([Billiald et al., 2023]). Collagen (5 μg/mL prepared in PBS) was used to coat 96-well plates overnight at 4°C. Non-specific sites were closed by Superblock (Cat. 37580; Thermo Fisher Scientific, Waltham, MA, United States). […] 1-StepTM Ultra TMB-ELISA (Cat. 34022; Thermo Fisher Scientific, Waltham, MA, United States) was developed, and the reaction was stopped with a 2 M sulphuric acid solution. Absorbance values were read at 450 nm. At least three washes were performed with PBS between each of the above steps. Each spot was measured three times.
# [4] = tested on: human washed platelets; assay: Platelet aggregation assay (Chrono-Log aggregometer); type: cell-based; conditions: for IC50: Homo sapiens, Platelet, 10 min, 10 min incubation at 37°C
# Method: as §1, §2
compound,measurement,setting,value
O=c1cc(-c2ccc(O)c(O)c2)oc2cc(O)cc(O)c12 [Luteolin],IC50,"[1]; read-out: IC50, inhibition of ATP release, convulxin-induced",2.37 µM
same,IC50,"[1]; collagen-induced, read-out: IC50, inhibition of ATP release",2.67 µM
same,effect on platelet ATP release,"[1]; convulxin- and collagen-induced, concentration-dependent",significantly inhibited
same,low-density lipoprotein content,[2],significantly reduced
same,IC50,[3],5.49 µM
same,effect on platelet aggregation,"[4]; 25 μM luteolin, ADP (5 μM)-induced",no significant effect
same,effect on platelet aggregation,"[4]; 25 μM luteolin, U46619 (3 μM)-induced",no significant effect
same,effect on platelet aggregation,"[4]; 25 μM luteolin, thrombin (0.05 U/mL)-induced",no significant effect
same,effect on platelet aggregation,"[4]; 100 μM luteolin, U46619-induced",significantly inhibited
same,IC50,"[4]; read-out: IC50, inhibition of platelet aggregation, convulxin (5 ng/mL)-induced",8.66 µM
same,IC50,"[4]; collagen (10 μg/mL)-induced, read-out: IC50, inhibition of platelet aggregation",4.81 µM
